Measurements taken from ChEMBL document CHEMBL1201862, “PubChem BioAssay data set” (2004).
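These data come from cells grown in 96-well plates and exposed to compound for 48 hours at five concentrations. GI50 = concentration required for 50% inhibition of growth.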 Calls of active or inactive are those of the source. No stated cut-off is given here; in the data, active = GI50 up to about 1.1 µM and inactive = higher.

What was measured:
Assay in all cases: NCI tumour cell line growth inhibition, 48 h
786-0 = test system: 786-0
Malme-3M = test system: Malme-3M
SF-295 = test system: SF-295
NCI-H522 = test system: NCI-H522
SNB-19 = test system: SNB-19
HT-29 = test system: HT-29
SR = test system: SR
OVCAR-4 = test system: OVCAR-4
UACC-257 = test system: UACC-257
HCT-15 = test system: HCT-15
SF-539 = test system: SF-539
RPMI-8226 = test system: RPMI-8226
SW-620 = test system: SW-620
CCRF-CEM = test system: CCRF-CEM
RXF 393 = test system: RXF 393
HOP-62 = test system: HOP-62

SMILES	GI50 (786-0)	GI50 (Malme-3M)	GI50 (SF-295)	GI50 (NCI-H522)	GI50 (SNB-19)	GI50 (HT-29)	GI50 (SR)	GI50 (OVCAR-4)	GI50 (UACC-257)	GI50 (HCT-15) [µM]	GI50 (SF-539)	GI50 (RPMI-8226)	GI50 (SW-620)	GI50 (CCRF-CEM)	GI50 (RXF 393)	GI50 (HOP-62)
CN(Cc1ccccc1)C(=O)c1ccccc1C(=O)O	> 100 µM (inactive)	> 100 µM (inactive)	> 100 µM (inactive)	> 100 µM (inactive)	> 100 µM (inactive)	> 100 µM (inactive)	> 100 µM (inactive)	> 100 µM (inactive)	> 100 µM (inactive)	> 100	> 100 µM (inactive)	> 100 µM (inactive)	> 100 µM (inactive)	> 100 µM (inactive)	> 100 µM (inactive)	
O=C1/C=C(/c2ccc(O)cc2)[C@@H](O)Cc2ccc(O)cc2O1	> 100 µM (inactive)	> 100 µM (inactive)	93.1 µM (inactive)	54.8 µM (inactive)	93.5 µM (inactive)	> 100 µM (inactive)	56.1 µM (inactive)	> 100 µM (inactive)	> 100 µM (inactive)	> 100	52.5 µM (inactive)		> 100 µM (inactive)			61.4 µM (inactive)
COc1ccc2oc3c(OC)c(OC)c(OC)cc3c(=O)c2c1	> 100 µM (inactive)	> 100 µM (inactive)		21.8 µM (inactive)	> 100 µM (inactive)	> 100 µM (inactive)		> 100 µM (inactive)	> 100 µM (inactive)	> 100	40.4 µM (inactive)	> 100 µM (inactive)	> 100 µM (inactive)	> 100 µM (inactive)	21.4 µM (inactive)	50.2 µM (inactive)
C=Nc1ccc([N+](=O)[O-])cc1	> 100 µM (inactive)	> 100 µM (inactive)	> 100 µM (inactive)	> 100 µM (inactive)	> 100 µM (inactive)	> 100 µM (inactive)	> 41.5 µM (inactive)	> 100 µM (inactive)	> 100 µM (inactive)	> 60.1	> 100 µM (inactive)	> 31.6 µM (inactive)	> 63.8 µM (inactive)	> 63.1 µM (inactive)		
Cc1cc(N(CCC#N)CCC#N)ccc1/C=C(\NC(=O)/C=C/c1ccccc1)NC(=O)Nc1ccc(Cl)cc1	51.6 µM (inactive)	73.6 µM (inactive)	42.5 µM (inactive)		48.4 µM (inactive)	> 100 µM (inactive)		18.9 µM (inactive)	> 100 µM (inactive)	> 100	26 µM (inactive)	> 100 µM (inactive)	> 100 µM (inactive)	> 100 µM (inactive)	15.7 µM (inactive)	
N/N=C1\C(=O)N(C2CCCCCC2)C(=O)C1C(=O)NC1CCCCCC1 (stereo unspecified)	29.6 µM (inactive)	24.7 µM (inactive)	45.2 µM (inactive)	23.2 µM (inactive)	35.6 µM (inactive)	32.1 µM (inactive)		28.3 µM (inactive)	55.3 µM (inactive)	30	24.7 µM (inactive)		28.3 µM (inactive)	25.4 µM (inactive)	40 µM (inactive)	> 10 µM (inactive)
CCC1=CCC(P(=O)(c2ccccc2)c2ccccc2)CC1C (stereo unspecified)	39 µM (inactive)	41.7 µM (inactive)	32 µM (inactive)	20.7 µM (inactive)	27.5 µM (inactive)	> 100 µM (inactive)		35.6 µM (inactive)	74.5 µM (inactive)	34.9	42.9 µM (inactive)	22.9 µM (inactive)	48.5 µM (inactive)	31.3 µM (inactive)	42.2 µM (inactive)	
C/C(CN1C(=O)c2ccccc2C1=O)=N\NS(=O)(=O)c1ccc(C)cc1	> 100 µM (inactive)	> 100 µM (inactive)	> 100 µM (inactive)	> 100 µM (inactive)	> 100 µM (inactive)	> 100 µM (inactive)	> 100 µM (inactive)	> 100 µM (inactive)	> 100 µM (inactive)	> 100	> 100 µM (inactive)	> 100 µM (inactive)	> 100 µM (inactive)	> 100 µM (inactive)		> 100 µM (inactive)
COC(=O)[C@@H]1c2[nH]c3ccccc3c2C[C@@H]2c3ccccc3NC(=O)[C@@H]21	42.8 µM (inactive)	> 46.5 µM (inactive)	15.7 µM (inactive)	> 100 µM (inactive)	> 80.2 µM (inactive)	> 100 µM (inactive)			> 85.1 µM (inactive)	> 100	43.7 µM (inactive)	> 49.1 µM (inactive)	> 70.3 µM (inactive)	> 77.6 µM (inactive)	26.2 µM (inactive)	14.3 µM (inactive)
C[C@]12CCC(=O)C(O)=C1CC[C@@H]1C2CC[C@]2(C)NC(=O)CCC12 (stereo partly specified)	> 100 µM (inactive)	> 100 µM (inactive)	> 100 µM (inactive)	> 100 µM (inactive)	> 100 µM (inactive)	> 100 µM (inactive)		> 100 µM (inactive)	> 100 µM (inactive)	70.6	> 100 µM (inactive)	> 100 µM (inactive)	> 100 µM (inactive)	> 100 µM (inactive)	> 100 µM (inactive)	> 100 µM (inactive)
C/C(N)=[N+](/C)[O-]	> 100 µM (inactive)	> 100 µM (inactive)	> 100 µM (inactive)	72.6 µM (inactive)		83.6 µM (inactive)	23.8 µM (inactive)	38.5 µM (inactive)	> 100 µM (inactive)	19.9	69.2 µM (inactive)	> 100 µM (inactive)		23.4 µM (inactive)	> 100 µM (inactive)	> 100 µM (inactive)
CCOC(=O)C(C)(c1cn(C)c2ccccc12)c1cn(C)c2ccccc12	69.2 µM (inactive)	67.3 µM (inactive)	24.5 µM (inactive)			> 100 µM (inactive)		32.5 µM (inactive)	> 100 µM (inactive)	> 100	49.7 µM (inactive)	> 100 µM (inactive)	> 100 µM (inactive)	> 100 µM (inactive)	44.5 µM (inactive)	76.2 µM (inactive)
Cc1cc2c(=O)cc(-c3ccc(Cl)c(Cl)c3)oc2c(C(=O)O)c1C	> 100 µM (inactive)	> 100 µM (inactive)	> 100 µM (inactive)	> 100 µM (inactive)	> 100 µM (inactive)	> 100 µM (inactive)		> 100 µM (inactive)	> 100 µM (inactive)	> 100	> 100 µM (inactive)	> 100 µM (inactive)	> 100 µM (inactive)	> 100 µM (inactive)	76.6 µM (inactive)	
CN1C(=O)C(C)(C)NS1(=O)=O	> 100 µM (inactive)	> 100 µM (inactive)	> 100 µM (inactive)		> 100 µM (inactive)	> 100 µM (inactive)		> 100 µM (inactive)	> 100 µM (inactive)	> 100	> 100 µM (inactive)	> 100 µM (inactive)	> 100 µM (inactive)	> 100 µM (inactive)	> 100 µM (inactive)	> 100 µM (inactive)
CCc1cccc(C)c1NC(=O)C(=O)Cc1nc2ccccc2s1	> 100 µM (inactive)	> 100 µM (inactive)	> 100 µM (inactive)	> 100 µM (inactive)	> 100 µM (inactive)	> 100 µM (inactive)	> 100 µM (inactive)	> 100 µM (inactive)	> 100 µM (inactive)		> 100 µM (inactive)		0.371 µM (active)	> 100 µM (inactive)	> 100 µM (inactive)	
O=C(CC1(O)C(=O)Nc2ccccc21)c1cccc(O)c1 (stereo unspecified)	> 100 µM (inactive)	> 100 µM (inactive)	> 100 µM (inactive)	> 100 µM (inactive)	> 100 µM (inactive)	> 100 µM (inactive)		> 100 µM (inactive)	> 100 µM (inactive)	> 100	> 100 µM (inactive)	> 100 µM (inactive)	> 100 µM (inactive)		> 100 µM (inactive)	> 100 µM (inactive)
C#CC1(O)CCC2C3CCc4cc(Oc5nc(F)nc(-c6c7ccccc7c7sc8ccccc8n67)n5)ccc4C3CC[C@@]21C (stereo partly specified)	> 100 µM (inactive)	> 100 µM (inactive)	> 100 µM (inactive)	14.4 µM (inactive)	36.3 µM (inactive)	> 100 µM (inactive)	32.1 µM (inactive)	> 100 µM (inactive)	> 100 µM (inactive)	> 100	> 100 µM (inactive)	> 100 µM (inactive)	> 100 µM (inactive)	35.2 µM (inactive)		> 100 µM (inactive)
CN(C)C(=S)/N=c1\ssc(=S)n1Cc1ccccn1	4.24 µM (inactive)	2.49 µM (inactive)	3.8 µM (inactive)	0.859 µM (active)	6.55 µM (inactive)	2.78 µM (inactive)		14 µM (inactive)	4.1 µM (inactive)	2.01	4.49 µM (inactive)	2.31 µM (inactive)	2.7 µM (inactive)	10.7 µM (inactive)	3.01 µM (inactive)	10.6 µM (inactive)
c1cncc(C2N3CCCCC3[C@@H]3c4[nH]c5ccccc5c4CCN23)c1 (stereo partly specified)	> 100 µM (inactive)		> 100 µM (inactive)		> 100 µM (inactive)	> 100 µM (inactive)		> 100 µM (inactive)	> 100 µM (inactive)	> 100	> 100 µM (inactive)	> 100 µM (inactive)	> 100 µM (inactive)	> 100 µM (inactive)	21.1 µM (inactive)	> 100 µM (inactive)
CCCOc1ccc(/C=C\c2cc(OC)c(OC)c(OC)c2)cc1	> 100 µM (inactive)	62.2 µM (inactive)	39.9 µM (inactive)	13.2 µM (inactive)	> 100 µM (inactive)	26.5 µM (inactive)		30.5 µM (inactive)	54 µM (inactive)	43.6	74.3 µM (inactive)	14.5 µM (inactive)	55.1 µM (inactive)	> 100 µM (inactive)	40.1 µM (inactive)	> 100 µM (inactive)
